IC50 data for 24 compounds are collected here from US11712438B2, “Phenyl derivatives as PGE2 receptor modulators” (IDORSIA PHARMACEUTICALS LTD, priority 2017, dated 2023).

Some targets named below: PTRGER4 (EP4) (Homo sapiens, UniProt P35408); EP4 (Homo sapiens, UniProt P35408); PTGER2 (EP2) (Homo sapiens, UniProt P43116); EP2 (Homo sapiens, UniProt P43116).
Common to all, as to experiment: cell-based

Sequence of PTRGER4 (EP4) (P35408 whole entry): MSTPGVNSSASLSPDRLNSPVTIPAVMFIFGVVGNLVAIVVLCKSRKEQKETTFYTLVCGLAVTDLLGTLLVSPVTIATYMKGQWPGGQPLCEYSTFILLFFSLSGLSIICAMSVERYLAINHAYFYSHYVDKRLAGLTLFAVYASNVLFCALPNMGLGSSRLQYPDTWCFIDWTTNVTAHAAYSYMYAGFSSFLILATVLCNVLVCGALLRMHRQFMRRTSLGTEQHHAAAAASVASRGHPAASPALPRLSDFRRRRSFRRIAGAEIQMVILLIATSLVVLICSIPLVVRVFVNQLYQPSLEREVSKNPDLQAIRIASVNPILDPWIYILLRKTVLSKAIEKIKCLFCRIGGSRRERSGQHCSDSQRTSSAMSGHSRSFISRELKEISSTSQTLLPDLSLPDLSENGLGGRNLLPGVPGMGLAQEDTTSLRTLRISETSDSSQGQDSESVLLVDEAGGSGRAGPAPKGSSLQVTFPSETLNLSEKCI
Sequence of EP4 (P35408 whole entry): as above
Sequence of EP2 (P43116 whole entry): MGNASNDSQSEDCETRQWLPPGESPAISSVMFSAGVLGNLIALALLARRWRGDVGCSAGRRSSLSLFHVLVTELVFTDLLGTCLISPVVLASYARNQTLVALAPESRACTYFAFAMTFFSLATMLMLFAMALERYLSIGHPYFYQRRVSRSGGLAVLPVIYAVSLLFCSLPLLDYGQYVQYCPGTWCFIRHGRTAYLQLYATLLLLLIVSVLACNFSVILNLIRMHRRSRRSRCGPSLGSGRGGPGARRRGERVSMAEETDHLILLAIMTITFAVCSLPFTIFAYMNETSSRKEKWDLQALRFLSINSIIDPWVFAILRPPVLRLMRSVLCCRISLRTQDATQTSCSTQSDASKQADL
Sequence of PTGER2 (EP2) (P43116 whole entry): as above
Description for PTGER2 (EP2): The assay is using the PathHunter™ HEK 293 PTGER2 and PTGER4 b-arrestin cell lines from DiscoverX. The system is based on the Enzyme Fragment Complementation Technology. Two complementing fragments of the b-galactosidase enzyme are expressed within stably transfected cells. The larger portion of b-gal, termed EA for Enzyme Acceptor, is fused to the C-terminus of b-arrestin 2. The smaller fragment, termed ProLink™ tag, is fused to PTGER2 (EP2) or PTRGER4 (EP4) at the C-terminus. Upon activation, b-arrestin is recruited which forces the interaction of ProLink and EA, allowing complementation of the two fragments of b-gal and the formation of a functional enzyme which is capable of hydrolysing the substrate and generating a chemiluminescent signal.
The HEK 293 PTGER2 b-arrestin cells (DiscoverX 93-021-4C1) are detached from culture dishes with a cell dissociation buffer (Invitrogen, 13151-014), and collected in growing medium (GM: DMEM+Glutamax-I (Invitrogen 32430)/10% FCS, 1% Penicilin/streptomycin). 5000 cells per well of a 384 well plate (white with white bottom Greiner 781080) are seeded in 20 ul per well of GM. Plate is incubated at 37° C., 5% CO2 for 24 hours.
Stock solutions of test compounds are made at a concentration of 10 mM in DMSO, and serially diluted in DMSO to concentrations required for inhibition dose response curves (tested concentration range 10 μM-2 nM or 1 μM-0.2 nM).
PGE2 (Cayman 14010, stock solution: 10 mM in DMSO) is used as agonist at 5 μM final concentration, corresponding to EC80.
Five microliters of diluted compounds are transferred into the assay plate. Plate is pre-incubated 15 minutes at 37° C. Then five microliters of PGE2 (final conc. 5 μM) are transferred into the assay plate. Plate is incubated 120 minutes at 37° C.
Twelve μl of reagent are transferred to the assay plate and incubate for 1 hour at room temperature in the dark. Luminescence counts are read on a BMG Fluostar Optima reader according to manufacturer's instructions.
For each compound concentration calculate of the percentage of activity compared to DMSO control value as average±STDEV. (each concentration is measured in duplicate)
When compounds were measured multiple times, mean values are given.

A word on the IC50: it is the point on the concentration scale where inhibition reaches its midpoint. With `CCOc1cc(-c2cc(NCCc3ccc(Cl)c(Cl)c3)ncn2)sc1-c1noc(=O)[nH]1` [Example 121, 3-(5-{6-[2-(3,4-Dichloro-phenyl)-ethylamino]-pyrimidin-4-yl}-3-ethoxy-thiophen-2-yl)-[1,2,4]oxadiazol-5(4H)-one], the IC50 came to 9 nM against PTRGER4 (EP4), 42 nM on EP4, 66 nM on PTGER2 (EP2) and 60 nM at EP2.
Taken in the same sequence, the figures for `CCOc1cc(C(F)(F)F)ccc1CCNc1cc(-c2cc(OCC)c(C(=O)O)s2)ncn1` [Example 215, 3-Ethoxy-5-{6-[2-(2-ethoxy-4-trifluoromethyl-phenyl)-ethylamino]-pyrimidin-4-yl}-thiophene-2-carboxylic acid] were 3 nM, 8 nM, 10 nM and 12 nM.
Taken in the same sequence, the figures for `CCOc1cc(-c2cc(NCCc3cc(F)c(Br)cc3F)ncn2)sc1-c1noc(=O)[nH]1` [Example 107, 3-(5-{6-[2-(4-Bromo-2,5-difluoro-phenyl)-ethylamino]-pyrimidin-4-yl}-3-ethoxy-thiophen-2yl)-[1,2,4]oxadiazol-5(4H)-one] were 2 nM, 7 nM, 10 nM and 11 nM.
Taken in the same sequence, the figures for `CCOc1cc(-c2cc(NCCc3ccc(OC)cc3CC)ncn2)sc1-c1noc(=O)[nH]1` [Example 99, 3-(3-Ethoxy-5-{6-[2-(2-ethyl-4-methoxy-phenyl)-ethylamino]-pyrimidin-4-yl}-thiophen-2-yl)-[1,2,4]oxadiazol-5(4H)-one] were 45 nM, 69 nM, 75 nM and 80 nM.
In the case of `O=C(O)c1ccc(-c2cc(NCCc3c(F)cc(Br)cc3F)ncn2)s1` [Example 26, 5-{6-[2-(4-Bromo-2,6-difluoro-phenyl)-ethylamino]-pyrimidin-4-yl}-thiophene-2-carboxylic acid], the IC50 on PTRGER4 (EP4) was found to be 104 nM; against EP4, 115 nM; against PTGER2 (EP2), 149 nM; on EP2, 46 nM.
Taken in the same sequence, the figures for `O=C(O)c1[nH]c(-c2cc(NCCc3c(F)cc(Br)cc3F)ncn2)cc1C1CC1` [Example 271, 5-{6-[2-(4-Bromo-2,6-difluoro-phenyl)-ethylamino]-pyrimidin-4-yl}-3-cyclopropyl-1H-pyrrole-2-carboxylic acid] were 380 nM, 1760 nM, 36 nM and 151 nM.
Consider `CCCOc1cc(-c2cc(NCCc3c(F)cc(Br)cc3F)ncn2)ccc1C(=O)O` [Example 36, 4-{6-[2-(4-Bromo-2,6-difluoro-phenyl)-ethylamino]-pyrimidin-4-yl}-2-propoxy-benzoic acid], for which the IC50 came out at 684 nM against PTRGER4 (EP4), 951 nM against EP4, 70 nM at PTGER2 (EP2) and 91 nM against EP2.
With `CC(C)COc1cc(-c2cc(NCCc3c(F)cc(Br)cc3F)ncn2)ccc1C(=O)O` [Example 237, 4-{6-[2-(4-Bromo-2,6-difluoro-phenyl)-ethylamino]-pyrimidin-4-yl}-2-isobutoxy-benzoic acid], the IC50 was 419 nM against PTRGER4 (EP4), 668 nM against EP4, 72 nM against PTGER2 (EP2) and 128 nM against EP2.
Taken in the same sequence, the figures for `O=C(O)Cc1sc(-c2cc(NCCc3c(F)cc(Br)cc3F)ncn2)cc1OC(F)F` [Example 315, (5-{6-[2-(4-Bromo-2,6-difluoro-phenyl)-ethylamino]-pyrimidin-4-yl}-3-difluoromethoxy-thiophen-2-yl)-acetic acid] were 38 nM, 28 nM, 25 nM and 17 nM.
Regarding `O=C(O)c1ccc(-c2cc(NCCc3c(F)cc(Br)cc3F)ncn2)cc1OC1CCC1` [Example 42, 4-{6-[2-(4-Bromo-2,6-difluoro-phenyl)-ethylamino]-pyrimidin-4-yl}-2-cyclobutoxy-benzoic acid], the IC50 on PTRGER4 (EP4) was determined as 241 nM; on EP4, 297 nM; against PTGER2 (EP2), 59 nM; at EP2 it was 50 nM.
Taken in the same sequence, the figures for `CCOc1cc(-c2cc(NCCc3ccc(Cl)cc3)ncn2)sc1C(=O)O` [Example 82, 5-{6-[2-(4-Chloro-phenyl)-ethylamino]-pyrimidin-4-yl}-3-ethoxy-thiophene-2-carboxylic acid] were 103 nM, 46 nM, 74 nM and 66 nM.
Taken in the same sequence, the figures for `CCOc1cc(-c2cc(NCCc3c(F)cc(Br)cc3F)ncn2)sc1C(=O)NS(C)(=O)=O` [Example 154, N-(5-{6-[2-(4-Bromo-2,6-difluoro-phenyl)-ethylamino]-pyrimidin-4-yl}-3-ethoxy-thiophene-2-carbonyl)-methanesulfonamide] were 33 nM, 66 nM, 13 nM and 8 nM.
Taken in the same sequence, the figures for `CCOc1cc(-c2cc(NCCc3c(F)cc(Br)cc3F)ncn2)sc1-c1noc(=O)[nH]1` [Example 110, 3-(5-{6-[2-(4-Bromo-2,6-difluoro-phenyl)-ethylamino]-pyrimidin-4-yl}-3-ethoxy-thiophen-2yl)-[1,2,4]oxadiazol-5(4H)-one] were 2 nM, 3 nM, 6 nM and 9 nM.
As for `CCOc1cc(-c2cc(NCCc3ccc(SC)cc3OC)ncn2)ccc1C(=O)O` [Example 6, 2-Ethoxy-4-{6-[2-(2-methoxy-4-methylsulfanyl-phenyl)-ethylamino]-pyrimidin-4-yl}-benzoic acid], the IC50 was found to be 1210 nM at PTRGER4 (EP4), 573 nM at EP4, 1350 nM on PTGER2 (EP2) and 702 nM against EP2.
Taken in the same sequence, the figures for `CCCc1cc(-c2cc(NCCc3c(F)cc(Br)cc3F)ncn2)sc1CC(=O)O` [Example 314, (5-{6-[2-(4-Bromo-2,6-difluoro-phenyl)-ethylamino]-pyrimidin-4-yl}-3-propyl-thiophen-2-yl)-acetic acid] were 61 nM, 27 nM, 55 nM and 169 nM.
Taken in the same sequence, the figures for `O=C(O)c1ccc(-c2cc(NCCc3c(F)cc(Br)cc3F)ncn2)cc1OC1CC1` [Example 259, 4-{6-[2-(4-Bromo-2,6-difluoro-phenyl)-ethylamino]-pyrimidin-4-yl}-2-cyclopropoxy-benzoic acid] were 351 nM, 76 nM, 46 nM and 45 nM.
In the case of `CCOc1cc(-c2cc(NCCc3ccccc3F)ncn2)sc1C(=O)O` [Example 56, 3-Ethoxy-5-{6-[2-(2-fluoro-phenyl)-ethylamino]-pyrimidin-4-yl}-thiophene-2-carboxylic acid], the IC50 against PTRGER4 (EP4) was 3030 nM; at EP4, 775 nM; against PTGER2 (EP2) it was 717 nM; against EP2, 512 nM.
Taken in the same sequence, the figures for `COc1cc(-c2noc(=O)[nH]2)ccc1-c1cc(NCCc2c(F)cc(Br)cc2F)ncn1` [Example 291, 3-(4-{6-[2-(4-Bromo-2,6-difluoro-phenyl)-ethylamino]-pyrimidin-4-yl}-3-methoxy-phenyl)-[1,2,4]oxadiazol-5(4H)-one] were 77 nM, 154 nM, 88 nM and 774 nM.
Taken in the same sequence, the figures for `CCOc1cc(-c2cc(NCCc3ccc(Br)cc3F)ncn2)sc1-c1noc(=O)[nH]1` [Example 125, 3-(5-{6-[2-(4-Bromo-2-fluoro-phenyl)-ethylamino]-pyrimidin-4-yl}-3-ethoxy-thiophen-2-yl)-[1,2,4]oxadiazol-5(4H)-one] were 3 nM, 5 nM, 11 nM and 49 nM.
Taken in the same sequence, the figures for `CCOc1cc(-c2cc(NCCc3c(F)cc(Br)cc3F)ncn2)ccc1NC=O` [Example 240, N-(4-{6-[2-(4-Bromo-2,6-difluoro-phenyl)-ethylamino]-pyrimidin-4-yl}-2-ethoxy-phenyl)-formamide] were 72 nM, 405 nM, 127 nM and 511 nM.
In the case of `CNc1cc(-c2cc(NCCc3c(F)cc(Br)cc3F)ncn2)ccc1C(=O)NCCOC` [Example 277, 4-{6-[2-(4-Bromo-2,6-difluoro-phenyl)-ethylamino]-pyrimidin-4-yl}-N-(2-methoxy-ethyl)-2-methylamino-benzamide], the IC50 against PTRGER4 (EP4) is 68 nM; against EP4, 241 nM; at PTGER2 (EP2), 74 nM; at EP2, 221 nM.
As to `CCOc1cc(-c2cc(NCCc3c(F)cccc3F)ncn2)sc1-c1noc(=O)[nH]1` [Example 103, 3-(5-{6-[2-(2,6-Difluoro-phenyl)-ethylamino]-pyrimidin-4-yl}-3-ethoxy-thiophen-2-yl)-[1,2,4]oxadiazol-5(4H)-one], the IC50 worked out at 36 nM against PTRGER4 (EP4), 39 nM on EP4, 62 nM on PTGER2 (EP2) and 39 nM at EP2.
Regarding `CCOc1cc(-c2cc(NCCc3c(F)cc(Cl)cc3F)ncn2)sc1-c1noc(=O)[nH]1` [Example 105, 3-(5-{6-[2-(4-Chloro-2,6-difluoro-phenyl)-ethylamino]-pyrimidin-4-yl}-3-ethoxy-thiophen-2yl)-[1,2,4]oxadiazol-5(4H)-one], the 50% inhibitory concentration (IC50) was 9 nM against PTRGER4 (EP4), 25 nM at EP4, 11 nM at PTGER2 (EP2) and 40 nM against EP2.
Taken in the same sequence, the figures for `CCCOc1cc(-c2cc(NCCc3c(F)cc(Br)cc3F)ncn2)ccc1CC(=O)O` [Example 248, (4-{6-[2-(4-Bromo-2,6-difluoro-phenyl)-ethylamino]-pyrimidin-4-yl}-2-propoxy-phenyl)-acetic acid] were 311 nM, 299 nM, 226 nM and 635 nM.
